Test system: cardiac tissues
Conditions: compared with cardiac tissue without compound (baseline)
Protocol: Human iPSC cardiomyocytes (CMs) were differentiated from hiPSC line BJ1D by using monolayer differentiation protocols (Lian, et al. 2013; Yang, et al. 2008). The disassociation of cardiomyocytes into single cells was performed at day 21 of stem cell differentiation, using previous methods (Yang, et al. 2008). The disassociated cells and cardiac fibroblast (Lonza, NHCF-V) were mixed to reach a cell number ratio of 10:1. The resultant cells were remixed in a collagen hydrogel at a cell number of 5.5×10^7 cells/mL. […]
Cardiac cultured in a multiwell plate was placed in a chamber (37° C., 5% CO2) of fluorescent microscope (Olympus Corporation). ⅓rd of the media was extracted from one well of the multiwell-plate device. […] After 10-15 min, videos in the green and red channel were recorded. The force and Ca^2+ transients were measured under electrical stimulation at 1 Hz. […] Ca^2+ transients were recorded under fluorescent microscope using a green-light channel (λex490 nm/λem525 nm). The ratio of peak fluorescence to baseline fluorescence intensity was measured the relative Ca^2+ change in the tissues by Image J software (NIH) as described previously (Zhao, et al. 2019). […]
With built-in sensors and electrodes, the contractile force of tissues can be measured in situ. […]

Q: With `CCN(CC)CC(=O)Nc1c(C)cccc1C` [lidocaine] as the compound, how does the “electrical excitability of a cardiac tissue” value read?
A: Its value is “inhibited”.

— patent publication US12391825B2, “Thermoplastic polymer composition for micro 3D printing and uses thereof” (priority 2020, dated 2025)
